Results: US11834458B2, “Anti-cancer nuclear hormone receptor-targeting compounds” (Nuvation Bio Inc., priority 2021, dated 2023)
Like-named read-outs stand apart in the source and are kept apart here.

Tests used:
[1] = target: ER Alpha-ligand binding domain (LBD) (Homo sapiens (Human), UniProt P03372); test: ER binding assay (LanthaScreen TR-FRET ER Alpha Competitive Binding); conditions: Fluormone ES2 Green tracer 3 nM, 2 h room temperature
Protocol: ER binding assay: ERα binding was assessed using the LanthaScreen® TR-FRET ER Alpha Competitive Binding kit from ThermoFisherScientific. In this assay, a terbium-labeled anti-GST antibody was used to indirectly label GST-tagged ER Alpha-ligand binding domain (LBD) by binding to its GST tag. Competitive binding to the ER Alpha-LBD (GST) was detected by a test compound's ability to displace a fluorescent ligand (Fluormone™ ES2 Green tracer) from the ER Alpha-LBD (GST), which results in a loss of FRET signal between the Tb-anti-GST antibody and the tracer. Briefly, to assess ER binding of the DDC compounds, the test compounds (top dose 10 μM, 4 fold serial dilution, 8 point dose response) and controls were transferred to the assay plate. The Fluormone™ ES2 Green tracer (3 nM final concentration with assay buffer) was added to the assay plate. This was followed by addition of a mixture of the ER Alpha-LBD (GST) and terbium anti-GST antibody. After a 2 h incubation period at room temperature, the plate was read on the Envision plate reader and the TR-FRET ratio of 520:495 emissions were calculated and used to determine the IC50 from a dose response curve of the compound.

MCF7 cells = test: Cell viability assay, MCF7; format: cell-based; conditions: Homo sapiens
Protocol: (§1) Cell viability assay: LNCap, 22Rv1, MCF7, MDAMB361, T47D, and IEC6 cells are seeded at a density of 500-2000 cells/well in 96 well plates, and a ‘T0’ (timepoint 0) was included along with the assay plate. The plates are then incubated at 37° C., 5% CO2 in a cell culture incubator overnight. On the next day, the ‘T0’ plate was assayed using CellTiterGlo (Promega, Inc) according to the manufacturer's instructions. The appropriate compounds are diluted in DMSO and added to the assay plate (final DMSO concentration of 0.1-0.2%) on the next day. The assay plates are incubated for 6 days at 37° C., 5% CO2. After the incubation period, the plates are assayed using CellTiterGlo (Promega, Inc) according to the manufacturer's instructions and luminescence was read on the EnVision plate reader. Inhibition of the tested compounds was determined by the following formula: Inhibition rate (%)=(1−(RLU compound−RLU day0)/(RLU control−RLU day0))*100%. GraphPadPrism was used to analyze the data and determine GI50/IC50 values.

MDAMB361 cells = test: Cell viability assay, MDAMB361; format: cell-based; conditions: Homo sapiens
Protocol: as §1

ER = ER (Homo sapiens (Human), UniProt P03372); test: ER antagonism assay; format: cell-based; conditions: SK-BR-3 cells transfected with ERE plasmid and ER, 100 nM β-Estradiol, 24 h
Sequence of ER (P03372 whole entry, looked up): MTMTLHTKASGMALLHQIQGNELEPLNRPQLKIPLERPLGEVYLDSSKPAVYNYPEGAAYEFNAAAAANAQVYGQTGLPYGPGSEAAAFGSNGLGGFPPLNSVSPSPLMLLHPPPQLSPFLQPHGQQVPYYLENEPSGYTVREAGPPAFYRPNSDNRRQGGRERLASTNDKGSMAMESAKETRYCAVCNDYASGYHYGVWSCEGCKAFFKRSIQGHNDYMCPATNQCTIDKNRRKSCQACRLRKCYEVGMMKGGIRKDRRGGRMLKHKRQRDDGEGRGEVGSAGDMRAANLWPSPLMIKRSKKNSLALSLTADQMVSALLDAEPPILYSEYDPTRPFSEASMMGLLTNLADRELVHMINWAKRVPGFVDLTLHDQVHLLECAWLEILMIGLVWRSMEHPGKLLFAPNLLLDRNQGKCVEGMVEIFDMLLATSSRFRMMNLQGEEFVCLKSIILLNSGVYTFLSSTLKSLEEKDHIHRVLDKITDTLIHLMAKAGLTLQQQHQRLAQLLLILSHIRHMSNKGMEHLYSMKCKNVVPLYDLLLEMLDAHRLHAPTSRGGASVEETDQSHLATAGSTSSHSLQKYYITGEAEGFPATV
Protocol: ER antagonism assay: To evaluate ER antagonist activity, SK-BR-3 cells were seeded at a density of 30000 cells/well in the assay plate. The assay plate was then incubated at 37° C., 5% CO2 for 24 h. A mixture of ERE plasmid and ER in opti-MEM media was incubated with lipofectamine 3000 in Opti-MEM media and incubated at room temperature for 15 mins. 10 μl of this transfection mix was added to each well of the assay plate and the assay plate was incubated at 37° C., 5% CO2 for 24 h. 100 nM β-Estradiol in 10 μL medium or 10 μL medium (control wells) was added to corresponding wells of assay plate and incubated at 37° C. 5% CO2 for 24 h. After the incubation period, 50 μl of Dual-glo luciferase reagent was added to the assay plate and mixed at room temperature for 20 mins on an orbital shaker, before reading out on the EnVision plate reader. 50 μL of Stop & Glo reagent was added to assay plate, mixed at room temperature for 20 minutes, and read on the Envision plate reader.

IEC6 cells = test: Cell viability assay, IEC6; format: cell-based; conditions: Rattus norvegicus
Protocol: as §1

LNCap cells = test: Cell viability assay, LNCap; format: cell-based; conditions: Homo sapiens, 144 h
Protocol: as §1

T47D cells = test: Cell viability assay, T47D; format: cell-based; conditions: Homo sapiens, 144 h
Protocol: as §1

[2] = target: full-length androgen receptor (Homo sapiens (Human), UniProt P10275); test: AR antagonism assay; format: cell-based; conditions: HEK293 cells stably expressing full-length androgen receptor, testosterone 1 nM, 20 h; read-out: AR antagonism
Sequence of full-length androgen receptor (P10275 whole entry): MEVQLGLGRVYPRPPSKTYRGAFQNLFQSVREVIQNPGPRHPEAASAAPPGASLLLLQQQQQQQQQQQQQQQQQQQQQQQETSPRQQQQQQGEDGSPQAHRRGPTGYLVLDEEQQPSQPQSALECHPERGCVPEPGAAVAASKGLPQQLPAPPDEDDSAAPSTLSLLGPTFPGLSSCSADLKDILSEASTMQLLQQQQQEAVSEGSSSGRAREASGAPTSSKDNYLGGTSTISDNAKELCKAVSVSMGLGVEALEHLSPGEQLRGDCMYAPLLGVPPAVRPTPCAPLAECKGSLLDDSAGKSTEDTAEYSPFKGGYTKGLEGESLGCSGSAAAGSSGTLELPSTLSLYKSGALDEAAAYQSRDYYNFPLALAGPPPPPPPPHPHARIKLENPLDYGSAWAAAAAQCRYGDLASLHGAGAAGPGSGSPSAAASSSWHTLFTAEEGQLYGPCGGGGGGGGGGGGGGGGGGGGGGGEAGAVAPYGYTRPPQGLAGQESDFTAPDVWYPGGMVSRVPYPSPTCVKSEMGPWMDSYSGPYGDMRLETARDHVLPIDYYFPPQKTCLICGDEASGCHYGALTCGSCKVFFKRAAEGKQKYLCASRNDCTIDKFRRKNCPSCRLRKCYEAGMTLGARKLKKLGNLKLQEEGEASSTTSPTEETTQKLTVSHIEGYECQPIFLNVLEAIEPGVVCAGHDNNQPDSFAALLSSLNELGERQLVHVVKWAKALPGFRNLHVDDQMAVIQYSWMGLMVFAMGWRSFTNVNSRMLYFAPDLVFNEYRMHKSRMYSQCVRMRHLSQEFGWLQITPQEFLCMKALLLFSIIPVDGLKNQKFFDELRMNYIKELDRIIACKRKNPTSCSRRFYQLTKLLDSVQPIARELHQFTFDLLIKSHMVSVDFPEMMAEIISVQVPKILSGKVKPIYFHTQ
Protocol: AR antagonism assay: To evaluate AR antagonist activity, test compound was added to the assay plate (top dose 10 μM, 3 fold serial dilution, 10 point dose response). HEK293 cells stably expressing the full-length androgen receptor were seeded at a density of 20,000 cells/well in the assay plate. The assay plate was then incubated at room temperature for 10 minutes and at 37° C., 5% CO2 for 20 minutes. Testosterone was added to the assay plate at 1 nM final concentration and the assay plate incubated at 37° C., 5% CO2 for 20 h. After the incubation period, Steady-glo was added to the assay plate and mixed at room temperature for 20 minutes on an orbital shaker, before reading out on the EnVision plate reader.

AR = AR (Homo sapiens (Human), UniProt P10275, T878A); test: AR binding assay
Sequence of AR (P10275 whole entry T878A): as the sequence (P10275 whole entry) above, with T878A counted along it
Protocol: AR binding assay: To assess AR binding, test compound (top dose 10 μM, 4 fold serial dilution, 8 point dose response) and control (progesterone) were transferred to the assay plate. Cytosol from LnCaP cells was added to the plate, followed by addition of radiolabeled ^3H-R1881 at a final concentration of 1 nM. The plate was sealed, and the reaction was incubated at 300 rpm at 4° C. for 24 hrs. Radioligand absorption buffer (10 mM Tris-HCl, pH 7.4; 1.5 mM EDTA; 1 mM DTT; 0.25% charcoal; 0.0025% dextran) was then added to the plate, mixed, and incubated at 4° C. for 15 minutes. The plate was then centrifuged at 3000 rpm for 30 minutes at 4° C. The supernatant was transferred to the scint-tube and Tri-carb was used for scintillation counting. The data was analyzed using GraphPadPrism v5.0 and binding IC50 was determined as the concentration where 50% inhibition of radioligand binding was observed.

22Rv1 cells = test: Cell viability assay, 22Rv1; format: cell-based; conditions: Homo sapiens, 22Rv1, 144 h, read-out: 22RV1 (GI50, nM)
Protocol: as §1

[3] = MCF7, 144 h, read-out: MCF7 (GI50, nM)
[4] = MDA-MB-361, 144 h, read-out: MDA-MB-361 (GI50, nM)
[5] = IEC-6, 144 h, read-out: IEC-6 (IC50, nM)
[6] = LNCaP, read-out: LNCap (GI50, nM)
[7] = T47D, read-out: T47D (GI50, nM)

Sequence of ER Alpha-ligand binding domain (LBD) (P03372 whole entry, looked up, the tested form may be a part): as the sequence (P03372 whole entry, looked up) above

| SMILES | GI50 (MCF7 cells; [3]) | GI50 (MDAMB361 cells; [4]) | IC50 (IEC6 cells; [5]) | GI50 (LNCap cells; [6]) | GI50 (T47D cells; [7]) | IC50 [2] | IC50 (AR) | GI50 (22Rv1 cells) | also measured |
| --- | --- | --- | --- | --- | --- | --- | --- | --- | --- |
| CCc1c2c(nc3ccc(OC(=O)N4CCN(C(=O)CCCCCOc5cc(F)c([C@@H]6c7[nH]c8ccccc8c7C[C@@H](C)N6CC(C)(C)F)c(F)c5)CC4)cc13)-c1cc3c(c(=O)n1C2)COC(=O)[C@]3(O)CC [Compound 1, (S)-4,11-diethyl-4-hydroxy-3,14-dioxo-3,4,12,14-tetrahydro-1H-pyrano[3′,4′:6,7]indolizino[1,2-b]quinolin-9-yl 4-(6-(3,5-difluoro-4-((1R,3R)-2-(2-fluoro-2-methylpropyl)-3-methyl-2,3,4,9-tetrahydro-1H-pyrido[3,4-b]indol-1-yl)phenoxy)hexanoyl)piperazine-1-carboxylate] | 10 to 500 nM | 10 to 500 nM |  |  |  |  |  |  | IC50 [1]: < 0.01 µM; IC50 (ER): 0.01 to 0.5 µM |
| CC[C@@]1(O)C(=O)OCc2c1cc1n(c2=O)Cc2cc3c(CN(C)C)c(OC(=O)N4[C@H](C)CN(CCCCCCN(C)c5ccc([C@H]6C[C@@]7(C)[C@@H](CC[C@]7(OC(C)=O)C(C)=O)[C@@H]7CCC8=CC(=O)CCC8=C76)cc5)C[C@H]4C)ccc3nc2-1 [Compound 16, (S)-10-((Dimethylamino)methyl)-4-ethyl-4-hydroxy-3,14-dioxo-3,4,12,14-tetrahydro-1H-pyrano[3′,4′:6,7]indolizino[1,2-b]quinolin-9-yl (2R,6R)-4-(6-((4-((8S,11R,13S,14S,17R)-17-acetoxy-17-acetyl-13-methyl-3-oxo-2,3,6,7,8,11,12,13,14,15,16,17-dodecahydro-1H-cyclopenta[a]phenanthren-11-yl)phenyl)(methyl)amino)hexyl)-2,6-dimethylpiperazine-1-carboxylate] | 10 to 500 nM | > 1000 nM | > 1000 nM | 501 to 1000 nM | 10 to 500 nM |  |  |  |  |
| CC[C@@]1(O)C(=O)OCc2c1cc1n(c2=O)Cc2cc3c(COC(C)(C)C)c(OC(=O)N4CCN(CCCCCCN(C)c5ccc([C@H]6C[C@@]7(C)[C@@H](CC[C@]7(OC(C)=O)C(C)=O)[C@@H]7CCC8=CC(=O)CCC8=C76)cc5)CC4)ccc3nc2-1 [Compound 17, (S)-10-(tert-Butoxymethyl)-4-ethyl-4-hydroxy-3,14-dioxo-3,4,12,14-tetrahydro-1H-pyrano[3′,4′:6,7]indolizino[1,2-b]quinolin-9-yl 4-(6-((4-((8S,11R,13S,14S,17R)-17-acetoxy-17-acetyl-13-methyl-3-oxo-2,3,6,7,8,11,12,13,14,15,16,17-dodecahydro-1H-cyclopenta[a]phenanthren-11-yl)phenyl)(methyl)amino)hexyl)piperazine-1-carboxylate] | > 1000 nM | > 1000 nM | > 1000 nM | > 1000 nM | > 1000 nM |  |  |  |  |
| CC[C@@]1(O)C(=O)OCc2c1cc1n(c2=O)Cc2cc3c(CN4CCN(C(=O)CCCCCN(C)c5ccc([C@H]6C[C@@]7(C)[C@@H](CC[C@]7(OC(C)=O)C(C)=O)[C@@H]7CCC8=CC(=O)CCC8=C76)cc5)CC4)c(O)ccc3nc2-1 [Compound 19, (8S,11R,13S,14S,17R)-17-Acetyl-11-(4-((6-(4-(((S)-4-ethyl-4,9-dihydroxy-3,14-dioxo-3,4,12,14-tetrahydro-1H-pyrano[3′,4′:6,7]indolizino[1,2-b]quinolin-10-yl)methyl)piperazin-1-yl)-6-oxohexyl)(methyl)amino)phenyl)-13-methyl-3-oxo-2,3,6,7,8,11,12,13,14,15,16,17-dodecahydro-1H-cyclopenta[a]phenanthren-17-yl Acetate] |  |  |  |  |  |  |  |  | IC50 (IEC6 cells; 144 h, IEC-6 cells, 6 days, CellTiterGlo, read-out: IEC-6 (IC50)): > 1000 nM; GI50 (MCF7 cells; 144 h, MCF7 cells, 6 days, CellTiterGlo, read-out: MCF7 (GI50)): 10 to 500 nM; GI50 (LNCap cells; LNCap cells, 6 days, CellTiterGlo, read-out: LNCap (GI50)): 10 to 500 nM; GI50 (MDAMB361 cells; 144 h, MDA-MB-361 cells, 6 days, CellTiterGlo, read-out: MDA-MB-361 (GI50)): 10 to 500 nM; GI50 (T47D cells; T47D cells, 6 days, CellTiterGlo, read-out: T47D (GI50)): 10 to 500 nM |
| CC[C@@]1(O)C(=O)OCc2c1cc1n(c2=O)Cc2cc3c(CN(C)C)c(OC(=O)N4CCC(N(C)C(=O)CO[C@H]5CC[C@H]6[C@@H]7CC[C@H]8CC(=O)CC[C@]8(C)[C@H]7CC[C@]56C)CC4)ccc3nc2-1 [Compound 20, (S)-10-((Dimethylamino)methyl)-4-ethyl-4-hydroxy-3,14-dioxo-3,4,12,14-tetrahydro-1H-pyrano[3′,4′:6,7]indolizino[1,2-b]quinolin-9-yl 4-(2-(((5S,8R,9S,10S,13S,14S,17S)-10,13-dimethyl-3-oxohexadecahydro-1H-cyclopenta[a]phenanthren-17-yl)oxy)-N-methylacetamido)piperidine-1-carboxylate] |  |  | > 1000 nM | 10 to 500 nM |  | > 1 µM | 0.01 to 0.5 µM | 10 to 500 nM |  |
| CC[C@@]1(O)C(=O)OCc2c1cc1n(c2=O)Cc2cc3c(CN(C)C)c(OC(=O)N(C)C4CCN(C(=O)CO[C@H]5CC[C@H]6[C@@H]7CC[C@H]8CC(=O)CC[C@]8(C)[C@H]7CC[C@]56C)CC4)ccc3nc2-1 [Compound 21, (S)-10-((Dimethylamino)methyl)-4-ethyl-4-hydroxy-3,14-dioxo-3,4,12,14-tetrahydro-1H-pyrano[3′,4′:6,7]indolizino[1,2-b]quinolin-9-yl (1-(2-(((5S,8R,9S,10S,13S,14S,17S)-10,13-dimethyl-3-oxohexadecahydro-1H-cyclopenta[a]phenanthren-17-yl)oxy)acetyl)piperidin-4-yl)(methyl)carbamate] |  |  | > 1000 nM | 10 to 500 nM |  | > 1 µM | 0.01 to 0.5 µM | 10 to 500 nM |  |
